Results on five molecules are retold here after ChEMBL document CHEMBL1139605, “Novel ketal ligands for the glucocorticoid receptor: in vitro and in vivo activity” (Bioorg Med Chem Lett, 2005).

Data set [1] is filed under the species Mus musculus. As to the kind of experiment: Effective concentration required for inhibition of interleukin-6 in mouse thioglycolate-elicited peritoneal exudate cell line using 62% radiolabeled Dexamethasone. It is filed as functional.
Data set [2] deals with A549. As to the kind of experiment: Effective concentration for inhibition of interleukin-6 in human A549 lung carcinoma cell line using 75% radiolabeled Dexamethasone. It counts as functional, cell-based.
Data set [3] concerns the target T1, Glucocorticoid receptor (Homo sapiens, UniProt P04150).
T1 sequence (P04150 whole entry): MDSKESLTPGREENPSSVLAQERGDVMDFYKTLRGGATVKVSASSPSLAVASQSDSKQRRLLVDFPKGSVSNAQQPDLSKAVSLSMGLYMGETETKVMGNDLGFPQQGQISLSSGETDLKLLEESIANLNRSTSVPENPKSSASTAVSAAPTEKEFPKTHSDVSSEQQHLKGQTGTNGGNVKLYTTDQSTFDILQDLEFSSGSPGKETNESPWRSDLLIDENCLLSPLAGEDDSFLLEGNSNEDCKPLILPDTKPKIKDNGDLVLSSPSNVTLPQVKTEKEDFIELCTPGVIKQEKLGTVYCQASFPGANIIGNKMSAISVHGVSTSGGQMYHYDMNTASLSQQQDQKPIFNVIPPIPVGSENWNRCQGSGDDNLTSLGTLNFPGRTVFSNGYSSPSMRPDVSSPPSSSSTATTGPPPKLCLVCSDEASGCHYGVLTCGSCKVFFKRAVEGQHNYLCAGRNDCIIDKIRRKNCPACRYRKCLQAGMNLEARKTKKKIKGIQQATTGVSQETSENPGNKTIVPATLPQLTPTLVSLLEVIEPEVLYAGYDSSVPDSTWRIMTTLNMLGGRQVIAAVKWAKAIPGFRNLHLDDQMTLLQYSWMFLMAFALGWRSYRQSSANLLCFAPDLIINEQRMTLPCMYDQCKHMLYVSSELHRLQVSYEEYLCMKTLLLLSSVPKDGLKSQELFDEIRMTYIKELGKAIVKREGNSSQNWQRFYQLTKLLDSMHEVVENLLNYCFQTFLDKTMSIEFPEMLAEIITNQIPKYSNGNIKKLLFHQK
As to the kind of experiment: Inhibition of human glucocorticoid receptor alpha isoform.

The species named for data set [4] is Mus musculus. As to the kind of experiment: Effective concentration required for interleukin-6 transrepression in peritoneal exudate cells of C57B1/6 mouse using 62% Dexamethasone. It is filed as functional, cell-based.
Data set [5] relates to Mus musculus. As to the kind of experiment: Inhibition of LPS induced TNF-alpha secretion in mouse at an oral dose of 30 mg/kg relative to that produced by Dexamethasone at a dose of 0.3 mg/kg. It counts as functional.
The species entered for data set [6] is Mus musculus. The experiment in a line: Effective concentration required for inhibition of interleukin-6 in mouse thioglycolate-elicited peritoneal exudate cell line using 69% radiolabeled Dexamethasone. It counts as functional.
Data set [7] relates to A549. The experiment in a line: Effective concentration for inhibition of interleukin-6 in human A549 lung carcinoma cell line using 60% radiolabeled Dexamethasone. It counts as functional, cell-based.
Another data set has as its target T2, Estrogen receptor (Homo sapiens, UniProt P03372).
T2 sequence (P03372 whole entry): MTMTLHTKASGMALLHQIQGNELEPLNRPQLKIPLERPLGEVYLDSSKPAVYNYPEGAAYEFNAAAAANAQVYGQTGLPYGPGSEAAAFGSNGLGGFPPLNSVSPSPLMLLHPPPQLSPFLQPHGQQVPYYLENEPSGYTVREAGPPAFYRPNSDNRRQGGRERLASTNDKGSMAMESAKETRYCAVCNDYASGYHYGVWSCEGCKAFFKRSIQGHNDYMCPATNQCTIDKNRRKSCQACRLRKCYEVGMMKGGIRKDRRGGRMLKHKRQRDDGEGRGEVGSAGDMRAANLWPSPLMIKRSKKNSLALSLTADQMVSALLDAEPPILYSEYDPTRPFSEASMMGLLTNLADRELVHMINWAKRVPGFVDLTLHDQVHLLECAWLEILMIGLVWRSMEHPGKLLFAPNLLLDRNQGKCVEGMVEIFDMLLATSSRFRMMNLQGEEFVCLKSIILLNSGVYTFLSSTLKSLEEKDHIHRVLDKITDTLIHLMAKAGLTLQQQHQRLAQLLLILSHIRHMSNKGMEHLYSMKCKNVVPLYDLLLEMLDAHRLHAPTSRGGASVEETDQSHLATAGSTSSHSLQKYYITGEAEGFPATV
As to the kind of experiment: Binding affinity for human estrogen receptor alpha.

The target of data set [8] is T1, Glucocorticoid receptor. The experiment in a line: Binding affinity for human glucocorticoid receptor.
A short description of data set [9]: Clearance data in mouse at 2 mg/kg IV administration. It counts as ADME, organism-based. More on the design: dose 2 mg/kg, route intravenous. To be noted: in vivo.
The target in the next data set is Estrogen receptor beta (Homo sapiens, UniProt Q92731). As to the kind of experiment: Binding affinity for human estrogen receptor beta.
Data set [10] is described as follows: Volume of distribution in mouse at 2 mg/kg IV administration. It is filed as ADME, organism-based. Also on record: dose 2 mg/kg, route intravenous. As to conditions: in vivo, read-out: Volume of distribution.
For data set [11], the species on record is Mus musculus. As to the kind of experiment: Effective concentration required for interleukin-6 transrepression in peritoneal exudate cells of C57B1/6 mouse using 69% Dexamethasone. It is filed as functional, cell-based.
Data set [12] can be described thus: Half life time in mouse at 2 mg/kg IV administration. Also on record: dose 2 mg/kg, route intravenous. To be noted: in vivo. It is filed as ADME, organism-based.
Data set [13] in a line: Bioavailability in mouse (dose 10 mg/kg p.o.). It is filed as ADME, organism-based. As to conditions: in vivo, po.
Data set [14] deals with T3, Mineralocorticoid receptor (Rattus norvegicus, UniProt P22199).
T3 sequence (P22199 whole entry): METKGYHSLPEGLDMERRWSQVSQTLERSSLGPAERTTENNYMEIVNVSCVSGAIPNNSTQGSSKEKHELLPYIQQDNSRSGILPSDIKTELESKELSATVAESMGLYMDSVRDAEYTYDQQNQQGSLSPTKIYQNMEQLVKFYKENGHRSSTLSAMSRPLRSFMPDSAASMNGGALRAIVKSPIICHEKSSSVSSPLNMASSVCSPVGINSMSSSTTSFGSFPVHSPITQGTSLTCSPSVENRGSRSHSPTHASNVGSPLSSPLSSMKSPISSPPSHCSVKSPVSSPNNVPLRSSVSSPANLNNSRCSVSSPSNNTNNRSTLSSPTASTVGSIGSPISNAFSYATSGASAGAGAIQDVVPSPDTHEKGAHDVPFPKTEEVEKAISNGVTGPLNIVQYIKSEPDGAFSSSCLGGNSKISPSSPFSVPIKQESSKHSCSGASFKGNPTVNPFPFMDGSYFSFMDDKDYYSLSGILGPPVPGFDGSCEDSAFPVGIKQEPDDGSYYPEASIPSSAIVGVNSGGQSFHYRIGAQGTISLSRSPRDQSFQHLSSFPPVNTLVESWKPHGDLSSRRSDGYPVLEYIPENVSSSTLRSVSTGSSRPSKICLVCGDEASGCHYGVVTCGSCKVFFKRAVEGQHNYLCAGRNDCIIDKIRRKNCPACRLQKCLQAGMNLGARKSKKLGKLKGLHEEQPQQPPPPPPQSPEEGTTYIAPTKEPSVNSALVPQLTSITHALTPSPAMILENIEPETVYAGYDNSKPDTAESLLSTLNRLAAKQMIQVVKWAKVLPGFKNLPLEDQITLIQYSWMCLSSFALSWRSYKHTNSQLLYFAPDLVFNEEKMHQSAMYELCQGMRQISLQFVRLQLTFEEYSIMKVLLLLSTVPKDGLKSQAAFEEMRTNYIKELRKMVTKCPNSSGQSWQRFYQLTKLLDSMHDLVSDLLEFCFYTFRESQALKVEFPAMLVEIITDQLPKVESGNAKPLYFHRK
The experiment in a line: Binding affinity for rat mineralocorticoid receptor.

The subject of data set [15] is A549. As to the kind of experiment: Effective concentration required for inhibition of interleukin-6 in human A549 lung carcinoma cell line using 93% radiolabeled Dexamethasone. It is filed as functional, cell-based.
In another data set the test system is HepG2. As to the kind of experiment: Effective concentration required for induction of tyrosine aminotransferase in human HepG2 cells using 74% radiolabeled Dexamethasone. It counts as functional, cell-based.
Data set [16] can be described thus: Effective concentration required for induction of glutamine synthetase in human skeletal muscle cells using 45% radiolabeled Dexamethasone. It counts as functional.
The species entered for data set [17] is Mus musculus. The experiment in a line: Effective concentration required for inhibition of interleukin-6 in mouse thioglycolate-elicited peritoneal exudate cell line using 111% radiolabeled Dexamethasone. It counts as functional.
Data set [18] relates to A549. As to the kind of experiment: Effective concentration for inhibition of interleukin-6 in human A549 lung carcinoma cell line using 62% radiolabeled Dexamethasone. It counts as functional, cell-based.
Data set [19] is filed under the species Mus musculus. As to the kind of experiment: Effective concentration required for inhibition of interleukin-6 in mouse thioglycolate-elicited peritoneal exudate cell line using 85% radiolabeled Dexamethasone. It is filed as functional.
Data set [20] concerns A549. The experiment in a line: Effective concentration for inhibition of interleukin-6 in human A549 lung carcinoma cell line using 67% radiolabeled Dexamethasone. It is filed as functional, cell-based.
Data set [21] is described as follows: Effective concentration required for induction of glutamine synthetase in human skeletal muscle cells using 0% radiolabeled Dexamethasone. It is filed as functional.

pEC50, pIC50: −log10 of the molar value.

Sequence of Estrogen receptor beta (Q92731 whole entry): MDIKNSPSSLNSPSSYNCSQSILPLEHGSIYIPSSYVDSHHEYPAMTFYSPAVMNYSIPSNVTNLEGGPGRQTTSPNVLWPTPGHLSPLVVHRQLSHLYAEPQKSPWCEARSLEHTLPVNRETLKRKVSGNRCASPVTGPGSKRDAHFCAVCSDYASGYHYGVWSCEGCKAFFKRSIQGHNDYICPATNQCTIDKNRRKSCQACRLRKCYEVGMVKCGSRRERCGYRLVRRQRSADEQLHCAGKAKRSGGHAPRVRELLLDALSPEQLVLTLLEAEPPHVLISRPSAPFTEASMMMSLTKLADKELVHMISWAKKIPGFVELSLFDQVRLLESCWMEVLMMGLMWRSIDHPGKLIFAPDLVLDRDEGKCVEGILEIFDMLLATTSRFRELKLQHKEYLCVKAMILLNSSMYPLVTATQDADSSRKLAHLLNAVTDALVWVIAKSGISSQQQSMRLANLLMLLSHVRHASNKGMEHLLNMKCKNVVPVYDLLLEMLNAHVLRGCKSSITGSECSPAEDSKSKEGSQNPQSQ

By pEC50 is commonly meant −log10 of the EC50, conventionally taken in molar units. Read a high pEC50 as a small EC50. As usually defined, the pIC50 is −log10 of the IC50, conventionally taken in molar units. Low readings indicate a large IC50, high ones a small IC50. Broadly, the Inhibition is the relative decrease from the control value, in per cent. A lower Inhibition goes with a weak effect. With `CC[C@H]1OC2(CCC3=Cc4c(cnn4-c4ccc(F)cc4)C[C@@]32C)O[C@@H]1CC`, the pEC50 in the data set listed under Mus musculus [1] was 7.44; in the data set on A549 [2] it was 7.62; in the data set listed under Mus musculus [4] it was 7.44. The pIC50 against Glucocorticoid receptor [3] is 8.18. Also, the Inhibition with Mus musculus [5] came out at 97.8%.

For orientation: clearance means the rate of elimination divided by the concentration. High values mean efficient removal, low ones inefficient removal. For orientation: half-life means how long it takes for the measured level to halve. As a reminder, the bioavailability is the share of a dose that reaches the circulation, judged against a reference dose that is usually intravenous. Read a low bioavailability as poor availability. For `C[C@H]1C[C@H](C)OC2(CCC3=Cc4c(cnn4-c4ccc(F)cc4)C[C@@]32C)O1` (stereo not given in full), the pEC50 in the data set listed under Mus musculus [6] is 7.27; in the data set on A549 [7] it was 7.89; in the data set filed under Mus musculus [11] it was 7.27. The pIC50 on Estrogen receptor was below 5.00; on Glucocorticoid receptor [8] it was 8.15; on Estrogen receptor beta it was below 5.00; against Glucocorticoid receptor [3] it was 8.15; in data set [14], below 5.00. Also, the clearance in data set [9] amounted to 118 mL/min/kg. In addition, the Vd in [10] turned out to be 27.2 L/kg. Further, in [12], the half-life was 3 h. The molecule also displayed a bioavailability in [13] of 23%. Besides, the Inhibition in the data set with Mus musculus [5] was 80.8%.

In the case of `C/C=C/[C@H]1OC2(CCC3=Cc4c(cnn4-c4ccc(F)cc4)C[C@@]32C)O[C@@H]1/C=C/C`, the pEC50 with A549 [15] was 8.19; with HepG2, 6.79; in data set [16], 7.77; in the data set listed under Mus musculus [17] it was 8.12. At Glucocorticoid receptor [3], this molecule had a pIC50 of 8.57.

For `COC[C@H]1OC2(CCC3=Cc4c(cnn4-c4ccc(F)cc4)C[C@@]32C)O[C@@H]1COC`, the pEC50 was 8.00 in the data set filed under Mus musculus [6] and 8.08 with A549 [18]. On Glucocorticoid receptor [3], the pIC50 was 7.59.

Consider `C[C@]12Cc3cnn(-c4ccc(F)cc4)c3C=C1CCC21O[C@H](c2ccccc2)[C@@H](c2ccccc2)O1`, for which the pEC50 in the data set listed under Mus musculus [19] was 7.22; in the data set with A549 [20] it was 8.00; in data set [21] it was 8.00. The pIC50 on Glucocorticoid receptor [3] was 8.00.
